{"source": "patent US20040210047A1", "about": "“Methallyl sucroses and their epoxy derivatives” (priority 2003, published 2004)", "key": {"[1]": {"test_system": "Salmonella Typhimurium TA-98", "experiment": "Modified Maron-Ames test, strain TA-98", "conditions": "for cytotoxicity: strain TA-98, with microsomal enzyme S-9 activation, no effect on the background lawn; for mutagenicity (revertant colonies): strain TA-98, with or without metabolic activation S-9", "method": "(§1) Serial dilutions (100 fold) were made with DMSO to obtain samples with dilution factors of 10^−3, 10^−5, and 10^−7. The assays were performed according to the modified methods of Maron and Ames (Maron D. R. and Ames, B. N. Mutation Research, 1980, Vol. 113, 173-215) using two strains of Salmonella Typhimurium TA-98 and TA-100, with and without metabolic activation of the substrate. The male rat microsomal homogenate S-9 was used to effect metabolic activation of the substrate. TA-98 and TA-100 were cultured in Oxoid Nutrient Broth No.2 at 37° C. for 16 hours using a gyratory shaker (200-250 rpm).\n(§2) Compounds were assayed after the bacteria tested positive for the viability-related criteria above. Two mL top agar was placed in sterile culture tubes and kept at ˜40° C. in a water bath. Samples (100 μL) were placed in each tube (3 tubes per sample) and 100 μL of either strain TA-98 or TA-100 was added. When required, the S-9 homogenate (500 μL) was then added. The tubes were mixed and poured into minimal glucose agar plates. The plates were left at room temperature until the top agar solidified. Then, they were inverted and incubated at 37° C. for 48 hours. After incubation, revertant colonies were counted. Samples that presented greater than 2 times the number of revertant colonies were considered mutagenic. (See FIGS. 9(a) through (f))."}, "[2]": {"test_system": "Salmonella Typhimurium TA-100", "experiment": "Modified Maron-Ames test, strain TA-100", "conditions": "for dilution at which a mutagenic response was observed: dilution in DMSO", "method": "as §1, with “Serial dilutions (100 fold) were made with DMSO to obtain samples with dilution factors of 10^−3, 10^−5, and 10^−7.” left out\nas §2"}}, "note": "Entries after “also recorded” stand apart in the source; their conditions may differ.", "data": [{"compound": "epoxymethallyl sucrose [EMS]", "values": [{"measurement": "cytotoxicity", "setting": "[1]", "result": "slightly cytotoxic"}, {"measurement": "mutagenicity (revertant colonies)", "setting": "[1]", "result": "no apparent mutagenicity; also recorded: no mutagenic response"}, {"measurement": "cytotoxicity", "setting": "[2]; Maron-Ames tests, about 10 mg/mL concentration in DMSO, strain not stated", "result": "borderline cytotoxicity"}, {"measurement": "cytotoxicity", "setting": "[2]; dilution factors of 10^−1", "result": "borderline cytotoxic"}, {"measurement": "mutagenic response", "setting": "[2]; strain TA-100, dilution factor 10^−1 in DMSO, with or without S-9 activation", "result": "mutagenic response was observed"}, {"measurement": "revertant colonies", "setting": "[2]; strain TA-100, dilution factor 10^−2", "result": "had not doubled"}]}, {"compound": "epoxycrotyl sucrose [ECS]", "values": [{"measurement": "cytotoxicity", "setting": "[1]", "result": "slightly cytotoxic"}]}, {"compound": "CC(C)(c1ccc(OCC2CO2)cc1)c1ccc(OCC2CO2)cc1", "note": "(stereo not shown) [DGEBA, diglycidyl ether of bisphenol-A]", "values": [{"measurement": "cytotoxicity", "setting": "[1]", "result": "slightly cytotoxic"}, {"measurement": "mutagenicity (revertant colonies)", "setting": "[1]", "result": "no apparent mutagenicity"}, {"measurement": "cytotoxicity and mutagenicity, overall conclusion", "setting": "[1]; tester strain TA-98, all concentrations", "result": "neither cytotoxic nor mutagenic"}, {"measurement": "dilution at which a mutagenic response was observed", "setting": "[2]; strain TA-100, with S-9 activation", "result": "greater than 10^−3"}, {"measurement": "dilution at which a mutagenic response was observed", "setting": "[2]; strain TA-100, without S-9 activation", "result": "greater than 10^−5"}]}, {"compound": "epoxyallyl sucrose [EAS]", "values": [{"measurement": "cytotoxicity", "setting": "[1]", "result": "slightly cytotoxic"}]}]}
